# From US20200188319A1, “Use Of Inhaled Nitric Oxide For The Treatment Of Pulmonary Hypertension Associated With Lung Disease” (Bellerophon Pulse Technologies LLC, priority 2017, published 2020)
# Where “and” joins values, the source holds several entries; their conditions need not be identical. Identical values can stand only once. Like-named read-outs stand apart in the source and are kept apart here.
# Columns and labels:
# PH-COPD subjects [1] = test: Chronic iNO: TAPSE in PH-COPD subjects; assay type: in vivo, human
# From the text: (§1) One or more embodiments of the present invention also relate to maintaining and/or improving right ventricular (RV) function using long-term iNO therapy. Maintenance and/or improvements in RV function can be assessed by many echocardiographic measurements. One such quantitative approach to assess RV function is the measurement of the tricuspid annular plane systolic excursion (TAPSE). The TAPSE estimates RV systolic function by measuring the level of systolic excursion of the lateral tricuspid valve annulus towards the apex. An excellent correlation between the TAPSE and RV ejection fraction as assessed by radionuclide angiography has previously been established and the approach appears reproducible and proven to be a strong predictor of prognosis in heart failure. [Reference: Heart. 2006 April; 92(Suppl 1): i19-i26.]
# (§2) This study is an open label Phase 1 study of iNO therapy in subjects with PH-COPD (PULSE-COPD-007; NCT03135860). The primary outcome of this study is the change in lobar blood volume at total lung capacity with iNO and the change in lobar blood volume with iNO after 4 weeks of treatment with iNO as measured by HRCT.
# (§3) Subjects also had sPAP≥38 mm Hg as measured by echocardiogram, a post-bronchodilatory FEV1/FVC<0.7 and a FEV1<60% predicted. All subjects were at least 40 years old and were current or former smokers with at least 10 pack-years of tobacco cigarette smoking before study entry. All subjects also had been receiving LTOT for at least 3 months for at least 10 hours per day.
# (§4) The PH-COPD subjects received pulsed iNO therapy for 4 weeks for at least 12 hours/day. The iNO was administered utilizing a 4,880 ppm NO cylinder concentration.
# These subjects were diagnosed with PH-COPD and received 4 weeks of treatment with iNO at a dose of 30 mcg/kg IBW/hr. The results verify the increase in TAPSE which correlates to RV function.
# PH-IPF subjects [2] = test: Chronic iNO: SpO2 during 6MWT in PH-IPF subjects; assay type: in vivo, human; conditions: during exercise (6MWT)
# From the text: The secondary endpoints of Part 2b (chronic dosing) were change in 6MWT with Borg CR10 leg fatigue and dyspnea scale and SpO2, at the beginning and end of the 6MWT and symptoms evaluated using a questionnaire with after 4 weeks use of iNO at a dose of 75 mcg/kg IBW/hr and 2 weeks post discontinuation of iNO.
# The secondary endpoints of Part 3b (chronic dosing) were change in 6MWT with Borg CR10 leg fatigue and dyspnea scale and SpO2, at the beginning and end of the 6MWT and symptoms evaluated using a questionnaire after 4 weeks use of iNO at a dose of 30 mcg/kg IBW/hr.
# In Part 2b and Part 3b change in 6MWT with Borg CR10 leg fatigue and dyspnea scale and SpO2, at the beginning and end of the 6MWT, and a symptoms questionnaire were used to assess the effects of long term pulsed iNO administered using a pulsed NO delivery device in subjects with PH associated with IPF on LTOT.
# (§5) One patient from Part 2a entered into Part 2b. During Part 2b patient receive iNO utilizing NO cylinder concentration (4,880 ppm) at a dose of 75 mcg/kg IBW/hr during 4 weeks for at least 12 hours/day.
# (§6) The 2 patients from Part 3a entered Part 3b. During Part 3b, patients received iNO utilizing NO cylinder concentration (4,880 ppm) at a dose of 30 mcg/kg IBW/hr.
# (§7) […], the vasodilation and the hemodynamics were assessed. During the chronic phase, the focus was exercise capacity. Oxygen saturation during exercise was evaluated both at baseline as well as after 4 weeks of chronic treatment with iNO. Both the acute and chronic phases evaluated iNO doses of 30 and 75 mcg/kg IBW/hr.
# [3] = tested on: pulmonary arterial hypertension (PAH); conditions: cited from earlier work
# PH-COPD subjects [4] = test: Acute iNO: blood vessel volume by HRCT in PH-COPD subjects; assay type: in vivo, human; conditions: acute assessment
# From the text: as §2, §3
# (§8) A further analysis was performed of seven PH-COPD subjects that completed 4 weeks of treatment with iNO at a dose of 30 mcg/kg IBW/hr. The 6MWD and sPAP results are also presented in FIGS. 10 and 11, respectively.
# PH-IPF subjects [5] = test: Safety of iNO dose in PH-IPF subjects (PAP, RHC-monitored titration); assay type: in vivo, human
# Experimental: The safety endpoints in this study were: • 1. Incidence and severity of treatment emergent adverse events (AEs), including those related to device deficiency; • 2. Incidence of MetHb levels >7.0%; • 3. New symptoms that may be due to rebound PH associated with a temporal acute withdrawal of investigational study drug (i.e., symptoms occurring within 20 minutes of acute withdrawal and including those associated with investigational medical device malfunction or failure): systemic arterial oxygen desaturation, hypoxemia, bradycardia, tachycardia, systemic hypotension, near-syncope, syncope, ventricular fibrillation, and/or cardiac arrest; • 4. New or worsening symptoms of left heart failure or pulmonary edema; and • 5. Any decrease in systemic oxygenation measured by oxygen saturation of arterial blood by pulse oximetry (SpO2), i.e., hypoxia or oxygen saturation decrease, deemed by the Investigator to be clinically significant.
# The initial protocol intended that 4 subjects would be enrolled in Part 2. […] It was decided to temporarily stop recruitment. One of the 2 subjects completed 4 weeks of chronic use in Part 2b.
# In the amendment a total of 2 subjects participated in Part 3. The dose in Part 3 was lower than in Part 2 and each subject was titrated to the optimum dose as determined by the investigator. […] The dose was monitored with a RHC in place. […]
# PH-COPD subjects [6] = test: Chronic iNO: six-minute walk distance (6MWD) in PH-COPD subjects; assay type: in vivo, human; conditions: seven PH-COPD subjects, group value, iNO 30 mcg/kg/IBW, FIG. 10
# From the text: Oxygen saturation can be measured before, during or after tests that assess exercise capacity. One approach to assess exercise capacity is the six-minute walk test, which provides the 6MWD. Other measurements that can be used to assess exercise capacity include, but are not limited to, shuttle walk test, activity level, forced exercise, maximal exercise test, treadmill, bicycle and cardiopulmonary exercise test.
# as §2, §3, §4
# A further analysis was performed of seven PH-COPD subjects that completed 4 weeks of treatment with iNO at a dose of 30 mcg/kg IBW/hr. […]
# PH-COPD subjects [7] = test: Chronic iNO: sPAP by echocardiogram in PH-COPD subjects; assay type: in vivo, human; conditions: group value, FIG. 11
# From the text: as §2, §3, §4, §8
# As shown in FIG. 10, the change in 6MWD after 2 weeks of iNO therapy is +53.9 meters (p=0.02). Similarly, the change in 6MWD after 4 weeks of iNO therapy is +50.7 meters (p=0.04). In the literature, 27-54 meter improvements in 6MWD are considered clinically significant as measured by patient perceptions of improvement.
# PH-IPF subjects [8] = test: Chronic iNO: TAPSE (RV function) in PH-IPF subjects; assay type: in vivo, human
# From the text: as §1, §5, §6
# Subject 1 received pulsed iNO at a dose of 75 mcg/kg IBW/hr for 4 weeks, and Subject 3 received pulsed iNO at a dose of 30 mcg/kg IBW/hr for 4 weeks.
# PH-IPF subjects [9] = test: Acute iNO: blood vessel volume by HRCT in PH-IPF subjects on LTOT; assay type: in vivo, human
# From the text: This study was an exploratory, three-part, clinical study to assess the effect of pulsed iNO on functional pulmonary imaging parameters in subjects with PH-COPD on LTOT (Part 1) PH-IPF on LTOT (Part 2 and Part 3) (IK-7002-COPD-006; NCT02267655). The objective of this exploratory study was to examine the utility of high resolution computed tomography (HRCT) to measure changes in functional respiratory imaging parameters as a function of short term iNO administration using a pulsed NO delivery device in subjects with PH-IPF (Part 2 and Part 3) on LTOT. The primary endpoint in this exploratory study is the change from baseline in lobar blood volume at total lung capacity (TLC) after dosing with pulsed iNO (Part 1), iNO or Placebo (Part 2a) and after 4 weeks iNO treatment (Part 3b) as measured by HRCT.
# This was an exploratory clinical study to evaluated the utility of HRCT to measure the pharmacodynamic effects of short term pulsed administration of iNO using a pulsed NO delivery device in subjects with PH-IPF (Part 2 and Part 3) on LTOT.
# (§9) The 2 subjects enrolled in Part 2 were randomly assigned for Part 2a to 1 of 2 sequences to receive iNO utilizing the NO cylinder concentration (4,880 ppm) at a dose of 75 mcg/kg IBW/hr or placebo set at a dose of 75 mcg/kg IBW/hr.
# (§10) The 2 subjects enrolled in Part 3a each received three different doses of iNO utilizing NO cylinder concentration (4,880 ppm) at a dose of 5 mcg/kg IBW/hr, 10 mcg/kg IBW/hr and 30 mcg/kg IBW/hr, all with LTOT. For each dose, the change in PAP pressure and the change in cardiac output was evaluated by RHC. The investigator could decide after each dose to continue with the following dose or not.
# as §7
# PH-IPF subjects [10] = test: Acute iNO: sPAP in PH-IPF subjects; assay type: in vivo, human
# From the text: In Part 2 of the study the subjects needed to have severe PH, therefore PH in Part 2 was defined as sPAP≥50 mm Hg by 2-D echocardiogram. In Part 3 PH was defined as sPAP≥35 mm Hg by echocardiogram (Part 3).
# as §9, §10, §7
# [11] = Average of four PH-COPD subjects, iNO 30 mcg/kg IBW/hr for 4 weeks
# [12] = Average of PH-IPF Subjects 1 (75) and 3 (30 mcg/kg IBW/hr), 4 weeks
# [13] = PH-IPF Subject 1, pulsed iNO 75 mcg/kg IBW/hr for 4 weeks
# [14] = PH-IPF Subject 3, pulsed iNO 30 mcg/kg IBW/hr for 4 weeks
# [15] = iNO 30 mcg/kg IBW/hr, PH-IPF Patients 3 and 4
smiles,measurement,setting,value
"[N]=O [iNO, nitric oxide]","TAPSE % Change, Average",PH-COPD subjects [1]; [11],25%
same,"TAPSE Increase, Average",PH-COPD subjects [1]; [11],4
same,"TAPSE 4 Week, Average","PH-COPD subjects [1]; Average of four PH-COPD subjects, iNO 30 mcg/kg IBW/hr for 4 weeks, baseline 16",20
same,TAPSE after iNO therapy was discontinued,"PH-COPD subjects [1]; PH-COPD subjects, N=5, FIG. 12",19.0
same,TAPSE after chronic iNO therapy,"PH-COPD subjects [1]; PH-COPD subjects, N=7, baseline 18.8 (N=6), FIG. 12",21.3
same,SpO2 Nadir,"PH-IPF subjects [2]; 4 Weeks iNO 30 mcg/kg IBW/hr, Patient 3, baseline 83",89
same,SpO2 Average,"PH-IPF subjects [2]; 4 Weeks iNO 30 mcg/kg IBW/hr, Patient 3, baseline 88.9",95.7
same,SpO2 Nadir,"PH-IPF subjects [2]; 4 Weeks iNO 75 mcg/kg IBW/hr, Patient 1, baseline 76",79
same,SpO2 Average,"PH-IPF subjects [2]; 4 Weeks iNO 75 mcg/kg IBW/hr, Patient 1, baseline 89.4",86.6
same,efficacy for the treatment of PAH,"[3]; iNO dose 25 mcg/kg IBW/hr, same previous clinical study",inefficacious
same,efficacy for the treatment of PAH,"[3]; iNO dose 75 mcg/kg IBW/hr, previous clinical study",effective
same,ventilation-vasodilation correlation,"PH-COPD subjects [4]; PH-COPD subjects, p=0.03, FIG. 9",significant
same,increase in blood vessel volume on iNO (average),"PH-COPD subjects [4]; nine PH-COPD subjects, statistically significant",4.2%
same,PAP after discontinuation of iNO,"PH-IPF subjects [5]; iNO 75 mcg/kg IBW/hr, the two IPF patients of Part 2",sudden increase in PAP after discontinuation
same,dose titration monitored with RHC,"PH-IPF subjects [5]; iNO titrated to 30 mcg/kg IBW/hr, 2 subjects of Part 3",safely
same,change in 6MWD after 2 weeks of iNO therapy,PH-COPD subjects [6]; p=0.02,+53.9 meters
same,change in 6MWD after 4 weeks of iNO therapy,PH-COPD subjects [6]; p=0.04,+50.7 meters
same,sPAP 4 weeks after iNO therapy was discontinued,PH-COPD subjects [7]; PH-COPD subjects,58.0 mm Hg
same,sPAP after 4 weeks of iNO therapy,"PH-COPD subjects [7]; seven PH-COPD subjects, iNO 30 mcg/kg IBW/hr, baseline 60.3 mm Hg, p=0.02",48.3 mm Hg
same,"TAPSE % Change, Average",PH-IPF subjects [8]; [12],15%
same,"TAPSE Increase, Average",PH-IPF subjects [8]; [12],3
same,"TAPSE 4 Week, Average","PH-IPF subjects [8]; Average of PH-IPF Subjects 1 (75) and 3 (30 mcg/kg IBW/hr), 4 weeks, baseline 20",23
same,TAPSE % Change,PH-IPF subjects [8]; [13],21%
same,TAPSE Increase,PH-IPF subjects [8]; [13],3
same,TAPSE 4 Week,"PH-IPF subjects [8]; PH-IPF Subject 1, pulsed iNO 75 mcg/kg IBW/hr for 4 weeks, baseline 14",17
same,TAPSE % Change,PH-IPF subjects [8]; [14],12%
same,TAPSE Increase,PH-IPF subjects [8]; [14],4
same,TAPSE 4 Week,"PH-IPF subjects [8]; PH-IPF Subject 3, pulsed iNO 30 mcg/kg IBW/hr for 4 weeks, baseline 25",28
same,Acute change in blood vessel volume (%),PH-IPF subjects [9]; [15],2.8 ± 3.0% and 10.1 ± 3.4%
same,regional vasodilation in the lungs (targeting),"PH-IPF subjects [9]; iNO 30 mcg/kg IBW/hr, Patients 3 & 4, FIGS. 7 and 8",clear targeting of the drug
same,overall vasodilation,"PH-IPF subjects [9]; iNO 30 mcg/kg IBW/hr, range over Patients 3 & 4",2.8-10.1%
same,regional vasodilation in the lungs (targeting),"PH-IPF subjects [9]; iNO 75 mcg/kg IBW/hr, Patients 1 & 2, FIGS. 5 and 6",little to no targeted vasodilation
same,overall vasodilation,"PH-IPF subjects [9]; iNO 75 mcg/kg IBW/hr, range over Patients 1 & 2",14.2-34.2%
same,Acute Change in sPAP (%),PH-IPF subjects [10]; [15],−14.3% and −23.3%
same,Acute Change in sPAP (%),"PH-IPF subjects [10]; iNO 75 mcg/kg IBW/hr, PH-IPF Patients 1 and 2",−9.3% and −9.7%
